Laboratory results: patent US20230092890A1, “1, 3, 4-Oxadiazole derivative compounds as histone deacetylase 6 inhibitor, and the pharmaceutical composition comprising the same” (Chong Kun Dang Pharmaceutical Corp., priority 2019, published 2023)

Tests used:
HDAC1 = target: T1, HDAC1 (Homo sapiens, UniProt Q13547); experiment: HDAC enzyme activity inhibition (in vitro), HDAC1 Fluorimetric Drug Discovery Assay Kit; assay type: biochemical; settings: samples at 100, 1000 and 10000 nM; 37° C. 60 minutes; fluorescence Ex 390, Em 460; read-out: HDAC1 IC50
T1 construct: purchased Enzolifesciences BML-AK511
T1 sequence (Q13547 whole entry): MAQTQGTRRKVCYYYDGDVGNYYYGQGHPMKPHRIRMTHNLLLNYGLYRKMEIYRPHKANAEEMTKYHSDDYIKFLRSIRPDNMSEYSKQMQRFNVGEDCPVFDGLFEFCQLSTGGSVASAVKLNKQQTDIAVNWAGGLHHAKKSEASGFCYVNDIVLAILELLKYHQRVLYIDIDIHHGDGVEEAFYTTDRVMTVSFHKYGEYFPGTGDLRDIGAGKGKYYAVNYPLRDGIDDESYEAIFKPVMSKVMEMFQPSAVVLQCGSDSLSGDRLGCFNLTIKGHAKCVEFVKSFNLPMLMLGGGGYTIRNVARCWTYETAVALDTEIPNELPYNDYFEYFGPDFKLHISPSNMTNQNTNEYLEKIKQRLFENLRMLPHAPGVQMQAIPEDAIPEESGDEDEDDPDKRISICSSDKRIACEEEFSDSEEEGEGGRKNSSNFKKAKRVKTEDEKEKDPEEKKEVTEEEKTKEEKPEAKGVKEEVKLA
Outline: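 Fluorescence read-out (Ex 390/Em 460) after developer step, 30 min at 37° C, following a 60-min 37° C enzyme reaction. Test concentrations: HDAC1 kit, 100–10000 nM (three levels); recombinant human HDAC6, 0.1–1000 nM (five levels).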

HDAC6 human recombinant = target: T2, HDAC6 human recombinant (Homo sapiens, UniProt Q9UBN7); experiment: HDAC enzyme activity inhibition (in vitro), HDAC6 assay; assay type: biochemical; settings: samples at 0.1, 1, 10, 100 and 1000 nM; 37° C. 60 minutes; fluorescence Ex 390, Em 460; read-out: HDAC6 IC50
T2 construct: purchased Calbiochem 382180
T2 sequence (Q9UBN7 1-1215): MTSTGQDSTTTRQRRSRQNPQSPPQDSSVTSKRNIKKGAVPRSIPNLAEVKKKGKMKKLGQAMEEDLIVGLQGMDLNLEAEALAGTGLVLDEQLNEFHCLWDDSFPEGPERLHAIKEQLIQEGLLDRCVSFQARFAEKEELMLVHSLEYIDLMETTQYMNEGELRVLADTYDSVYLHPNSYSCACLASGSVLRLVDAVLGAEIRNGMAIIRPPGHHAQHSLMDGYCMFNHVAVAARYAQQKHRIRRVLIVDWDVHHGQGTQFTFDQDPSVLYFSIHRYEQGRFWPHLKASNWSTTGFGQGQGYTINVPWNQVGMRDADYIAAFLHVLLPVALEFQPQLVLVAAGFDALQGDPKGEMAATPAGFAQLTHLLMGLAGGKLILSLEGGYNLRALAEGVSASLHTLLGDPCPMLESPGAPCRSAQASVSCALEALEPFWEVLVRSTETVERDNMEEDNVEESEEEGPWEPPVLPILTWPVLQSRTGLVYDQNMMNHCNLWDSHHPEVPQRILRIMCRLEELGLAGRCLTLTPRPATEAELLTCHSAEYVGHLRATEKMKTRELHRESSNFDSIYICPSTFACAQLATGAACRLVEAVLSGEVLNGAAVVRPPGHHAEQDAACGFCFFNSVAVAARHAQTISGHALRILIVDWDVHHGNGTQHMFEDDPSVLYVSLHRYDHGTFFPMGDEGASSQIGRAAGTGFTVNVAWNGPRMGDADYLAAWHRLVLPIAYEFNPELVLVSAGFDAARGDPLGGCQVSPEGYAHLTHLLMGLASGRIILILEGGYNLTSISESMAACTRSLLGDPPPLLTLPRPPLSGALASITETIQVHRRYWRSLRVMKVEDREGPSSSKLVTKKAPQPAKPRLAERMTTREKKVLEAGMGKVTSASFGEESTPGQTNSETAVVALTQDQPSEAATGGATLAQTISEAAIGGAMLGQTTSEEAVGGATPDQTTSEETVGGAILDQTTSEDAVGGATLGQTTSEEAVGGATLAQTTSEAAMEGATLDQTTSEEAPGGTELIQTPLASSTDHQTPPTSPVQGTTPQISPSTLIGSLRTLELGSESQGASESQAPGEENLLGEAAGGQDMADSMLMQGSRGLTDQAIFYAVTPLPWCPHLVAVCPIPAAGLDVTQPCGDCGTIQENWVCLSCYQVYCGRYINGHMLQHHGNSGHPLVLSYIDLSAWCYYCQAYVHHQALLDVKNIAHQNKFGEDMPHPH
Outline: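 Fluorescence (Ex 390, Em 460) read after a 37° C, 60 min enzyme reaction and a further 30 min developer step at 37° C. Uses recombinant human HDAC6; HDAC1 arm dosed at 100, 1000, 10000 nM.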

Row | Compound | IC50 (HDAC1) | IC50 (HDAC6 human recombinant)
1 | O=c1oc2cc(C3CCNCC3)ccc2n1Cc1ccc(-c2nnc(C(F)F)o2)cn1 [Compound 308, 3-((5-(5-(difluoromethyl)-1,3,4-oxadiazole-2-yl)pyridine-2-yl)methyl)-6-(piperidine-4-yl)benzo[d]oxazole-2(3H)-one] | > 10000 nM | 456 nM
2 | CN1CCC(c2ccc3c(c2)oc(=O)n3Cc2ccc(-c3nnc(C(F)F)o3)cn2)CC1 [Compound 309, 3-((5-(5-(difluoromethyl)-1,3,4-oxadiazole-2-yl)pyridine-2-yl)methyl)-6-(1-methylpiperidine-4-yl)benzo[d]oxazole-2(3H)-one] | > 10000 nM | 53 nM
3 | O=c1n(Cc2ccc(-c3nnc(C(F)F)o3)cn2)c2cc(F)c(-c3cccc4[nH]ccc34)cc2n1C1CN(C2COC2)C1 [Compound 310, 1-((5-(5-(difluoromethyl)-1,3,4-oxadiazole-2-yl)pyridine-2-yl)methyl)-6-fluoro-5-(1H-indole-4-yl)-3-(1-(oxetan-3-yl)azetidine-3-yl)-1,3-dihydro-2H-benzo[d]imidazole-2-one] | > 10000 nM | 6 nM
4 | O=c1n(Cc2ccc(-c3nnc(C(F)F)o3)cn2)c2cc(F)c(-c3cccnc3)cc2n1C1CN(C2COC2)C1 [Compound 311, 1-((5-(5-(difluoromethyl)-1,3,4-oxadiazole-2-yl)pyridine-2-yl)methyl)-6-fluoro-3-(1-(oxetan-3-yl)azetidine-3-yl)-5-(pyridine-3-yl)-1,3-dihydro-2H-benzo[d]imidazole-2-one] | > 10000 nM | 12 nM
5 | O=c1n(Cc2ccc(-c3nnc(C(F)F)o3)cn2)c2cc(F)c(-c3cn[nH]c3)cc2n1C1CN(C2COC2)C1 [Compound 312, 1-((5-(5-(difluoromethyl)-1,3,4-oxadiazole-2-yl)pyridine-2-yl)methyl)-6-fluoro-3-(1-(oxetan-3-yl)azetidine-3-yl)-5-(1H-pyrazole-4-yl)-1,3-dihydro-2H-benzo[d]imidazole-2-one] | > 10000 nM | 6 nM
6 | CC(C)N1CCC(c2ccc3c(c2)oc(=O)n3Cc2ccc(-c3nnc(C(F)F)o3)cn2)CC1 [Compound 313, 3-((5-(5-(difluoromethyl)-1,3,4-oxadiazole-2-yl)pyridine-2-yl)methyl)-6-(1-isopropylpiperidine-4-yl)benzo[d]oxazole-2(3H)-one] | > 10000 nM | 165 nM
7 | O=c1oc2cc(C3CCN(C4COC4)CC3)ccc2n1Cc1ccc(-c2nnc(C(F)F)o2)cn1 [Compound 314, 3-((5-(5-(difluoromethyl)-1,3,4-oxadiazole-2-yl)pyridine-2-yl)methyl)-6-(1-(oxetan-3-yl)piperidine-4-yl)benzo[d]oxazole-2(3H)-one] | > 10000 nM | 112 nM
8 | O=c1oc2cc(C3CCN(C4CCC4)CC3)ccc2n1Cc1ccc(-c2nnc(C(F)F)o2)cn1 [Compound 315, 6-(1-cyclobutylpiperidine-4-yl)-3-((5-(5-(difluoromethyl)-1,3,4-oxadiazole-2-yl)pyridine-2-yl)methyl)benzo[d]oxazole-2(3H)-one] | > 10000 nM | 118 nM
9 | CC(C)(C)OC(=O)N1CCN(c2cc3oc(=O)n(Cc4ccc(-c5nnc(C(F)F)o5)cn4)c3cc2F)CC1 [Compound 316, tert-butyl 4-(3-((5-(5-(difluoromethyl)-1,3,4-oxadiazole-2-yl)pyridine-2-yl)methyl)-5-fluoro-2-oxo-2,3-dihydrobenzo[d]oxazole-6-yl)piperazine-1-carboxylate] | > 10000 nM | 91 nM
10 | CN1CCN(c2cc3oc(=O)n(Cc4ccc(-c5nnc(C(F)F)o5)cn4)c3cc2F)CC1 [Compound 317, 3-((5-(5-(difluoromethyl)-1,3,4-oxadiazole-2-yl)pyridine-2-yl)methyl)-5-fluoro-6-(4-methylpiperazine-1-yl)benzo[d]oxazole-2(3H)-one] | > 10000 nM | 15 nM
11 | O=c1oc2cc(N3CCN(C4COC4)CC3)c(F)cc2n1Cc1ccc(-c2nnc(C(F)F)o2)cn1 [Compound 318, 3-((5-(5-(difluoromethyl)-1,3,4-oxadiazole-2-yl)pyridine-2-yl)methyl)-5-fluoro-6-(4-(oxetan-3-yl)piperazine-1-yl)benzo[d]oxazole-2(3H)-one] | > 10000 nM | 56 nM
12 | O=c1n(Cc2ccc(-c3nnc(C(F)F)o3)cn2)c2cc(F)c(N3CCN(C4CCC4)CC3)cc2n1C1COC1 [Compound 320, 5-(4-cyclobutylpiperazine-1-yl)-1-((5-(5-(difluoromethyl)-1,3,4-oxadiazole-2-yl)pyridine-2-yl)methyl)-6-fluoro-3-(oxetan-3-yl)-1,3-dihydro-2H-benzo[d]imidazole-2-one] | > 10000 nM | 41 nM
13 | CN(C)CCn1c(=O)n(Cc2ccc(-c3nnc(C(F)F)o3)cn2)c2cc(F)c(-c3cccnc3)cc21 [Compound 326, 1-((5-(5-(difluoromethyl)-1,3,4-oxadiazole-2-yl)pyridine-2-yl)methyl)-3-(2-(dimethylamino)ethyl)-6-fluoro-5-(pyridine-3-yl)-1,3-dihydro-2H-benzo[d]imidazole-2-one] | > 10000 nM | 160 nM

Further lines, results first:

Row | IC50 (HDAC1) | IC50 (HDAC6 human recombinant) | Compound
14 | > 10000 nM | 39 nM | CN1CCN(c2cc3c(cc2F)n(Cc2ccc(-c4nnc(C(F)F)o4)cn2)c(=O)n3C2COC2)CC1 [Compound 319, 1-((5-(5-(difluoromethyl)-1,3,4-oxadiazole-2-yl)pyridine-2-yl)methyl)-6-fluoro-5-(4-methylpiperazine-1-yl)-3-(oxetan-3-yl)-1,3-dihydro-2H-benzo[d]imidazole-2-one]
15 | > 10000 nM | 53 nM | O=c1n(Cc2ccc(-c3nnc(C(F)F)o3)cn2)c2cc(F)c(N3CCN(C4COC4)CC3)cc2n1C1COC1 [Compound 321, 1-((5-(5-(difluoromethyl)-1,3,4-oxadiazole-2-yl)pyridine-2-yl)methyl)-6-fluoro-3-(oxetan-3-yl)-5-(4-(oxetan-3-yl)piperazine-1-yl)-1,3-dihydro-2H-benzo[d]imidazole-2-one]
16 | > 10000 nM | 29 nM | O=c1n(Cc2ccc(-c3nnc(C(F)F)o3)cn2)c2cc(F)c(N3CCN(Cc4cccc5[nH]ccc45)CC3)cc2n1C1COC1 [Compound 322, 5-(4-((1H-indole-4-yl)methyl)piperazine-1-yl)-1-((5-(5-(difluoromethyl)-1,3,4-oxadiazole-2-yl)pyridine-2-yl)methyl)-6-fluoro-3-(oxetan-3-yl)-1,3-dihydro-2H-benzo[d]imidazole-2-one]
17 | > 10000 nM | 35 nM | O=c1n(Cc2ccc(-c3nnc(C(F)F)o3)cn2)c2cc(F)c(N3CCN(Cc4cn[nH]c4)CC3)cc2n1C1COC1 [Compound 323, 5-(4-((1H-pyrazole-4-yl)methyl)piperazine-1-yl)-1-((5-(5-(difluoromethyl)-1,3,4-oxadiazole-2-yl)pyridine-2-yl)methyl)-6-fluoro-3-(oxetan-3-yl)-1,3-dihydro-2H-benzo[d]imidazole-2-one]
18 | > 10000 nM | 42 nM | O=c1n(Cc2ccc(-c3nnc(C(F)F)o3)cn2)c2cc(F)c(N3CCN(Cc4cccnc4)CC3)cc2n1C1COC1 [Compound 324, 1-((5-(5-(difluoromethyl)-1,3,4-oxadiazole-2-yl)pyridine-2-yl)methyl)-6-fluoro-3-(oxetan-3-yl)-5-(4-(pyridine-3-ylmethyl)piperazine-1-yl)-1,3-dihydro-2H-benzo[d]imidazole-2-one]
19 | > 10000 nM | 70 nM | O=c1n(Cc2ccc(-c3nnc(C(F)F)o3)cn2)c2cc(F)c(N3CCN(CC(F)(F)F)CC3)cc2n1C1COC1 [Compound 325]
